Measurements reported in patent US9486435B2, “(Het)aryl-p-quinone derivatives for treatment of mitochondrial diseases” (Edison Pharmaceuticals, Inc., priority 2008, dated 2016).

Assays:
Assay type in all cases: cell-based
[1] = test system: human dermal fibroblasts from Huntington's patients; assay: Rescue of BSO-stressed fibroblasts from Huntington's patients; conditions: Fibroblast, Huntington's fibroblasts GM 04281, BSO stress, read-out: protection against Huntington's, EC50
Experimental: (§1) An initial screen was performed to identify compounds effective for the amelioration of redox disorders. Test samples, 4 reference compounds (Idebenone, decylubiquinone, Trolox and α-tocopherol acetate), and solvent controls were tested for their ability to rescue FRDA fibroblasts stressed by addition of L-buthionine-(S,R)-sulfoximine (BSO), as described in Jauslin et al., Hum. Mol. Genet. 11(24):3055 (2002), Jauslin et al., FASEB J. 17:1972-4 (2003), and International Patent Application WO 2004/003565. […] This specific BSO-mediated cell death can be prevented by administration of antioxidants or molecules involved in the antioxidant pathway, such as α-tocopherol, selenium, or small molecule glutathione peroxidase mimetics. However, antioxidants differ in their potency, i.e. the concentration at which they are able to rescue BSO-stressed FRDA fibroblasts.
(§2) Test samples were screened according to the following protocol: A culture with FRDA fibroblasts was started from a 1 ml vial with approximately 500,000 cells stored in liquid nitrogen. Cells were propagated in 10 cm cell culture dishes by splitting every third day in a ratio of 1:3 until nine plates were available. Once confluent, fibroblasts were harvested. For 54 micro titer plates (96 well-MTP) a total of 14.3 million cells (passage eight) were re-suspended in 480 ml medium, corresponding to 100 μl medium with 3,000 cells/well. The remaining cells were distributed in 10 cm cell culture plates (500,000 cells/plate) for propagation. The plates were incubated overnight at 37° C. in a atmosphere with 95% humidity and 5% CO2 to allow attachment of the cells to the culture plate.
(§3) MTP medium (243 μl) was added to a well of the microtiter plate. The test compounds were unfrozen, and 7.5 μl of a 5 mM stock solution was dissolved in the well containing 243 μl medium, resulting in a 150 μM master solution. Serial dilutions from the master solution were made. The period between the single dilution steps was kept as short as possible (generally less than 1 second).
(§4) Plates were kept overnight in the cell culture incubator. The next day, 10 μl of a 10 mM BSO solution were added to the wells, resulting in a 1 mM final BSO concentration. Forty-eight hours later, three plates were examined under a phase-contrast microscope to verify that the cells in the 0% control (wells E1-H1) were clearly dead. The medium from all plates was discarded, and the remaining liquid was removed by gently tapping the plate inversed onto a paper towel.
(§5) 100 μl of PBS containing 1.2 μM Calcein AM were then added to each well. The plates were incubated for 50-70 minutes at room temperature. After that time the PBS was discarded, the plate gently tapped on a paper towel and fluorescence (excitation/emission wavelengths of 485 nm and 525 nm, respectively) was read on a Gemini fluorescence reader. Data was imported into Microsoft Excel (EXCEL is a registered trademark of Microsoft Corporation for a spreadsheet program) and used to calculate the EC50 concentration for each compound.
Compounds of the invention were tested using the screen as described in Example A, but substituting FRDA cells with Huntington's cells obtained from the Coriell Cell Repositories (Camden, N.J.; repository number GM 04281). The compounds were tested for their ability to rescue human dermal fibroblasts from Huntington's patients from oxidative stress.

[2] = test system: human dermal fibroblasts from LHON patients; assay: Rescue of BSO-stressed fibroblasts from LHON patients; conditions: Fibroblast, LHON fibroblasts GM03858, BSO stress, read-out: protection against LHON, EC50
Experimental: as §1, §2, §3, §4, §5
Compounds of the invention were screened as described in Example A, but substituting FRDA cells with Leber's Hereditary Optic Neuropathy (LHON) cells obtained from the Coriell Cell Repositories (Camden, N.J.; repository number GM03858). The compounds were tested for their ability to rescue human dermal fibroblasts from LHON patients from oxidative stress.

[3] = test system: human dermal fibroblasts from Parkinson's disease patients; assay: Rescue of BSO-stressed fibroblasts from Parkinson's disease patients; conditions: Fibroblast, PD fibroblasts AG20439, BSO stress, read-out: protection against PD, EC50
Experimental: as §1, §2, §3, §4, §5
Compounds of the invention were screened as described in Example A, but substituting FRDA cells with Parkinson's Disease (PD) cells obtained from the Coriell Cell Repositories (Camden, N.J.; repository number AG20439). The compounds were tested for their ability to rescue human dermal fibroblasts from Parkinson's disease patients from oxidative stress.

[4] = test system: Human dermal fibroblasts from Friedreich's Ataxia patients; assay: Rescue of BSO-stressed FRDA fibroblasts (Calcein AM viability); conditions: FRDA fibroblasts GM04078, BSO stress, read-out: protection against FRDA, EC50
Experimental: as §1
MEM (a medium enriched in amino acids and vitamins, catalog no. 1-31F24-I) and Medium 199 (M199, catalog no. 1-21F22-I) with Earle's Balanced Salts, without phenol red, were purchased from Bioconcept. Fetal Calf Serum was obtained from PAA Laboratories. Basic fibroblast growth factor and epidermal growth factor were purchased from PeproTech. Penicillin-streptomycin-glutamine mix, L-buthionine (S,R)-sulfoximine, (+)-α-tocopherol acetate, decylubiquinone, and insulin from bovine pancreas were purchased from Sigma. Trolox (6-hydroxy-2,5,7,8-tetramethylchromane-2-carboxylic acid) was obtained from Fluka. Idebenone was obtained from Chemo Iberica. Calcein AM was purchased from Molecular Probes. Cell culture medium was made by combining 125 ml M 199 EBS, 50 ml Fetal Calf Serum, 100 U/ml penicillin, 100 μg/ml streptomycin, 2 mM glutamine, 10 μg/ml insulin, 10 ng/ml EGF, and 10 ng/ml bFGF; MEM EBS was added to make the volume up to 500 ml. A 10 mM BSO solution was prepared by dissolving 444 mg BSO in 200 ml of medium with subsequent filter-sterilization. During the course of the experiments, this solution was stored at +4° C. The cells were obtained from the Coriell Cell Repositories (Camden, N.J.; repository number GM04078) and grown in 10 cm tissue culture plates. Every third day, they were split at a 1:3 ratio.
The test samples were supplied in 1.5 ml glass vials. The compounds were diluted with DMSO, ethanol or PBS to result in a 5 mM stock solution. Once dissolved, they were stored at −20° C. Reference antioxidants (Idebenone, decylubiquinone, α-tocopherol acetate and trolox) were dissolved in DMSO.
as §2, §3
as §4, with “The medium from all plates was discarded, and the remaining liquid was removed by gently tapping the plate inversed onto a paper towel.” left out

Structure (SMILES) | EC50 [1] | EC50 [2] | EC50 [3] | EC50 [4]
COc1cccc(C2=C(CCC(C)(C)O)C(=O)C(C)=C(C)C2=O)c1 [2-(3-hydroxy-3-methylbutyl)-3-(3-methoxyphenyl)-5,6-dimethyl-cyclohexa-2,5-diene-1,4-dione] | < 200 nM |  |  | 
COc1cc(F)ccc1C1=C(CCC(C)(C)O)C(=O)C(C)=C(C)C1=O [2-(4-fluoro-2-methoxyphenyl)-3-(3-hydroxy-3-methylbutyl)-5,6-dimethylcyclohexa-2,5-diene-1,4-dione] | < 200 nM |  |  | 
CC1=C(C)C(=O)C(c2ccc3c(c2)OCO3)=C(CCC(C)(C)O)C1=O [2-(benzo[d][1,3]dioxol-5-yl)-3-(3-hydroxy-3-methylbutyl)-5,6-dimethylcyclohexa-2,5-diene-1,4-dione] | < 200 nM |  |  | 
CC1=C(C)C(=O)C(c2ccc(C#N)cc2)=C(CCC(C)(C)O)C1=O [4-(2-(3-hydroxy-3-methylbutyl)-4,5-dimethyl-3,6-dioxocyclohexa-1,4-dienyl)benzonitrile] | < 200 nM |  |  | 
CC1=C(CCC(C)(C)O)C(=O)C(c2ccc(C(F)(F)F)cc2)=C(C)C1=O [Example 1, 2-(3-Hydroxy-3-methylbutyl)-3,5-dimethyl-6-(4-(trifluoromethyl)phenyl)cyclohexa-2,5-diene-1,4-dione] | < 200 nM | < 200 nM | < 200 nM | < 200 nM
COc1ccc(C2=C(C)C(=O)C(C)=C(CCC(C)(C)O)C2=O)cc1 [Example 2, 2-(3-Hydroxy-3-methylbutyl)-6-(4-methoxyphenyl)-3,5-dimethylcyclohexa-2,5-diene-1,4-dione] | < 200 nM | < 200 nM | < 200 nM | < 200 nM
CC1=C(CCC(C)(C)O)C(=O)C(c2ccc(C#N)cc2)=C(C)C1=O [Example 3, 4-(5-(3-Hydroxy-3-methylbutyl)-2,4-dimethyl-3,6-dioxocyclohexa-1,4-dienyl)benzonitrile] |  | < 200 nM | < 200 nM | < 200 nM
CC1=C(CCC(C)(C)O)C(=O)C(c2ccc3ccccc3c2)=C(C)C1=O [Example 4, 2-(3-Hydroxy-3-methylbutyl)-3,5-dimethyl-6-(naphthalen-2-yl)cyclohexa-2,5-diene-1,4-dione] | < 200 nM | < 200 nM | < 200 nM | < 200 nM
CC1=C(CCC(C)(C)O)C(=O)C(c2ccc(F)c(F)c2)=C(C)C1=O [Example 5, 2-(3,4-Difluorophenyl)-6-(3-hydroxy-3-methylbutyl)-3,5-dimethylcyclohexa-2,5-diene-1,4-dione] | < 200 nM | < 200 nM | < 200 nM | < 200 nM
CC1=C(CCC(C)(C)O)C(=O)C(c2ccc(F)cc2)=C(C)C1=O [Example 6, 2-(4Fluorophenyl)-6-(3-hydroxy-3-methylbutyl)-3,5-dimethylcyclohexa-2,5-diene-1,4-dione] | < 200 nM | < 200 nM | < 200 nM | < 200 nM
CC1=C(C)C(=O)C(c2ccc(F)cc2)=C(CCC(C)(C)O)C1=O [Example 9, 2-(4-Fluorophenyl)-3-(3-hydroxy-3-methylbutyl)-5,6-dimethylcyclohexa-2,5-diene-1,4-dione] | < 200 nM | < 200 nM |  | < 200 nM
CC1=C(C)C(=O)C(c2ccccc2)=C(CCC(C)(C)O)C1=O [Example 10, 2-(3-Hydroxy-3-methylbutyl)-5,6-dimethyl-3-phenylcyclohexa-2,5-diene-1,4-dione] |  |  | < 200 nM | 
CC1=C(C)C(=O)C(c2ccc(C(F)(F)F)cc2)=C(CCC(C)(C)O)C1=O [Example 11, 2-(3-Hydroxy-3-methylbutyl)-5,6-dimethyl-3-(4-(trifluoromethyl)phenyl)cyclohexa-2,5-diene-1,4-dione] | < 200 nM | < 200 nM | < 200 nM | < 200 nM
COc1ccc(C2=C(CCC(C)(C)O)C(=O)C(C)=C(C)C2=O)cc1 [Example 12, 2-(3-Hydroxy-3-methylbutyl)-3-(4-methoxyphenyl)-5,6-dimethylcyclohexa-2,5-diene-1,4-dione] | < 200 nM | < 200 nM |  | 
CC1=C(C)C(=O)C(c2cc3ccccc3o2)=C(CCC(C)(C)O)C1=O [Example 14, 2-(Benzofuran-2-yl)-3-(3-hydroxy-3-methylbutyl)-5,6-dimethylcyclohexa-2,5-diene-1,4-dione] |  | < 200 nM | < 200 nM | 
CC1=C(C)C(=O)C(c2ccc(F)c(F)c2)=C(CCC(C)(C)O)C1=O [Example 21, 2-(3,4-Difluorophenyl)-3-(3-hydroxy-3-methylbutyl)-5,6-dimethylcyclohexa-2,5-diene-1,4-dione] | < 200 nM | < 200 nM |  | < 200 nM
CC1=C(C)C(=O)C(c2ccccc2F)=C(CCC(C)(C)O)C1=O [Example 22, 2-(2-Fluorophenyl)-3-(3-hydroxy-3-methylbutyl)-5,6-dimethylcyclohexa-2,5-diene-1,4-dione] | < 200 nM |  |  | 
CC1=C(C)C(=O)C(Cc2ccccc2)=C(CCC(C)(C)O)C1=O [Example 23, 2-Benzyl-3-(3-hydroxy-3-methylbutyl)-5,6-dimethylcyclohexa-2,5-diene-1,4-dione] | < 200 nM | < 200 nM |  | < 200 nM
CC1=C(C)C(=O)C(CCC(C)(C)O)=C(CCc2ccccc2)C1=O [Example 25, 2-(3-Hydroxy-3-methylbutyl)-5,6-dimethyl-3-phenethylcyclohexa-2,5-diene-1,4-dione] | < 200 nM | < 200 nM | < 200 nM | 
CC1=C(C)C(=O)C(C(O)Cc2ccccc2)=C(CCC(C)(C)O)C1=O (stereo not shown) [Example 26, 2-(1-Hydroxy-2-phenylethyl)-3-(3-hydroxy-3-methylbutyl)-5,6-dimethylcyclohexa-2,5-diene-1,4-dione] | < 200 nM |  | < 200 nM | < 200 nM
